Test results as given in PMC7083937, “The ribosome-associated complex RAC serves in a relay that directs nascent chains to Ssb” (Nature Communications, 2020).

How the values were obtained:
nascent Pgk1-100 = assay: crosslinking to ribosome-bound nascent chain; assay type: binding, Saccharomyces cerevisiae; details: BS3
Text: (§1) DNA templates for transcription reactions were generated by PCR using pSPUTK-Pgk1[20] as a template. Reverse primers were designed such, that PCR products encoded different length PGK1 sequences, which all lacked a stop codon. The length of the resulting translation products, which remain ribosome-bound, is indicated in Results and Figure Legends. Transcripts were generated using SP6 polymerase (Thermo Fischer Scientific) as previously described. RNCs were generated via translation reactions primed with the stop codon-less transcripts at 20 °C in the presence of [^35S]-methionine (Hartmann-Analytic) for 80 min[20],[54]. Translation reactions were stopped by the addition of 50 µg/ml cycloheximide final concentration and subsequently RNCs were isolated via centrifugation at 400.000 g for 20 min in a TLA-100 or TLA-100.2 rotor (Beckman Coulter)[20].
(§2) Chemical crosslinking of ribosome-bound nascent chains to Ssb, Zuo1, or Ssz1 was analyzed essentially as described. In brief, resuspended RNCs were incubated in the presence of 400 µM BS^3 (bis-(sulfosuccinimidyl)-suberate, spacer length 1.14 nm, Thermo Scientific) for 20 min on ice and crosslinking was then quenched by the addition of TRIS base (tris(hydroxymethyl)aminomethane) to a final concentration of 50 mM. Crosslinked protein samples were precipitated by the addition of TCA (final concentration 5%), pellets were collected by centrifugation and were dissolved in dissociation buffer (200 mM TRIS/HCl pH 7.5, 4% SDS; 10 mM EDTA, 100 µg/ml BSA, protease inhibitor mix, 1 mM PMSF). Totals shown in Figs. 1,3 and Supplementary Fig. 1 before (total) and after BS^3 crosslinking (total + BS^3) represent 5% of the dissolved material employed for immunoprecipitation reactions. The resulting denatured protein samples were used to identify crosslink products between Ssb, Zuo1, or Ssz1 and nascent chains via affinity purification under denaturing conditions. To that end, protein A sepharose beads (GE Healthcare) were pre-coated with antibodies directed against Ssb, Zuo1, or Ssz1 and subsequently the denatured crosslinked material was allowed to bind to the beads resuspended in immunoprecipitation buffer (10 mM TRIS/HCl pH 7.5, 150 mM NaCl, 5 mM EDTA, 1% Triton X-100, protease inhibitor mix, 0.5 mM PMSF)[20]. Crosslink products bound to protein A sepharose beads were released by addition of SDS-sample buffer at 95 °C for 10 min. Samples were analyzed on Tris-Tricine gels[56] followed by autoradiography. Loading was normalized according to the signal of [^35S]-labelled nascent Pgk1 in the total prior to crosslinking. Relative crosslinking efficiencies between nascent Pgk1-100 and Zuo1 or Ssz1, respectively were determined as follows. For each biological replicate, band intensities of non-crosslinked nascent Pgk1-100 and of Pgk1-100 crosslink products (XL-Zuo1 or XL-Ssz1) was determined on a single autoradiograph for wild type RAC and the different mutant variants of RAC. The crosslinking efficiency (XL-Zuo1/Pgk1-100 or XL-Ssz1/Pgk1-100) of each sample was calculated and subsequently the ratio of XL-Zuo1/Pgk1-100 or XL-Ssz1/Pgk1-100 in the presence of wild type RAC was set to 1 in order to normalize the biological replicates (see Fig. 3c,d). The original data are provided as a Source Data file.
For complementation experiments translation reactions were performed in either ∆ssb1∆ssb2 or ∆ssb1∆ssb2∆zuo1∆ssz1 translation extract as indicated. Complementation with purified Ssb1 was performed by adding His6-tagged ScSsb1 at a final concentration of 2 µM to the translation reaction prior to the addition of mRNA. Ribosome-free cytosolic extract of various mutant yeast strains for complementation experiments as indicated in Results and Figure Legends was generated as follows. The A260 of a total cell extract prepared by the glass beads method (see above) was determined, and the total cell extract was subsequently adjusted to a final concentration of 800 mM KOAc. […]

nascent Pgk1-150 = assay: crosslinking to ribosome-bound nascent chain; assay type: binding, Saccharomyces cerevisiae; details: wild type translation extract; BS3; compared with Pgk1-50
Text: as §1, §2

nascent Pgk1-40 = assay: crosslinking to ribosome-bound nascent chain; assay type: binding, Saccharomyces cerevisiae; details: wild type translation extract; BS3
Text: as §1, §2

nascent Pgk1-45 = assay: crosslinking to ribosome-bound nascent chain; assay type: binding, Saccharomyces cerevisiae; details: wild type translation extract; BS3
Text: as §1, §2

nascent Pgk1-50 = assay: crosslinking to ribosome-bound nascent chain; assay type: binding, Saccharomyces cerevisiae; details: wild type translation extract; BS3
Text: as §1, §2

ribosomes = assay: ribosome-binding assay; parameters: species or system Saccharomyces cerevisiae; details: for fraction of Ssb ribosome-bound: total cell extract
Method: Yeast strains were grown to early log phase on YPD, prior to harvest cycloheximide was added to a final concentration of 100 µg/ml, and subsequently cells were collected via centrifugation at 5000 g. Cell pellets were resuspended in ribosome-binding buffer (20 mM Hepes/KOH pH 7.4, 2 mM Mg(OAc)2, 120 mM KOAc, 100 µg/ml cycloheximide, 2 mM DTT, 1 mM PMSF, protease inhibitor mix) and total cell extracts were prepared by the glass beads method. After a clearing spin at 20.000 g, each 60 µl of the total glass beads extract (A260 between 80 and 100 mAU) was loaded onto a 90 µl sucrose cushion (25% sucrose, 20 mM Hepes/KOH pH 7.4, 120 mM KOAc, 2 mM Mg(OAc)2, 2 mM DTT, 1 mM PMSF, protease inhibitor mix). After centrifugation at 400.000 g at 4 °C for 25 min the cytosolic supernatant was collected and the ribosomal pellet was resuspended in 300 µl ribosome-binding buffer. Aliquots of the total cell extract, cytosolic supernatant, and resuspended ribosomal pellets were precipitated by addition of TCA (trichloroacetic acid) to a final concentration of 5%. TCA pellets were dissolved in SDS-sample buffer and were analyzed on 10% Tris-Tricine gels followed by immunoblotting.

[1] = Δssb1Δssb2 extract, purified Ssb1, 2 µM, added prior to translation

Ssb: ribosome-associated Hsp70 homolog of yeast, isoforms SSB1 and SSB2
crosslinking of Ssb to nascent Pgk1 when RAC or Ssz1 is absent from ribosomes, reduced to (nascent Pgk1-100; Fig. 1e set-up): < 1/6
crosslink to nascent Pgk1-100 (nascent Pgk1-100; wild type translation extract, compared with Pgk1-50): more efficient crosslinks
crosslink of Ssb to nascent Pgk1-100 upon adding purified Ssb (nascent Pgk1-100; [1]): restored
effect of added purified Ssb on crosslinking to the RAC subunits (nascent Pgk1-100; [1]): strongly reduced
crosslink of Ssb to nascent Pgk1-100, dependence on RAC (nascent Pgk1-100; Δzuo1Δssz1Δssb1Δssb2 RNCs complemented with ribosome-free extracts): Only in the presence of wild type RAC nascent Pgk1-100 formed an efficient crosslink to Ssb
crosslink to nascent Pgk1-150 (nascent Pgk1-150): more efficient crosslinks
crosslink to nascent Pgk1-40 (nascent Pgk1-40): did not form crosslink products with Pgk1-40 or Pgk1-45
crosslink to nascent Pgk1-45 (nascent Pgk1-45): did not form crosslink products with Pgk1-40 or Pgk1-45
crosslink to nascent Pgk1-50 (nascent Pgk1-50): weak crosslink
ribosome-binding of Ssb when RAC or Ssz1 is absent from ribosomes, reduced to (ribosomes; in vitro translation system, Zuo1ΔN49, no Ssz1, or no Ssz1 and Zuo1): about 1/3
fraction of Ssb ribosome-bound (ribosomes; cells expressing RAC-∆N49): about 1/ 3
fraction of Ssb ribosome-bound (ribosomes; wild type, RAC-∆N8, or RAC-∆N16): About 2/3
